Measured values taken from patent publication US20140088006A1, “Stem Cell Mobilization and Tissue Repair and Regeneration” (Wellstat Therapeutics Corporation, priority 2011, published 2014).
Values joined by “and” are separate entries in the source; they are usually repeats but may differ in a detail not shown here. Equal entries are not always repeated. No end group written: not given here.

Key:
[1] = tested on: CFU-GEMM progenitor cells; assay: Mobilization of CFU-GEMM in diabetic db/db mice; format: in vivo
[2] = tested on: streptozotocin-induced diabetic mice; assay: STZ diabetes model; format: in vivo, C57BL/6 female mice
Description: In order to look at the ability of Compound X mobilized stem cells to mediate tissue regeneration in vivo subcutaneous injections of 250 μg/kg of Compound X were compared with the ability of Compound X treated bone marrow cells to regenerate pancreas in a streptozoticin-induced diabetic model. Streptozotocin (STZ) is an antibiotic that preferentially kills the insulin secreting beta cells in pancreas. STZ-induced diabetes is a widely used model of pancreatic insufficiency.
Streptozotocin was dissolved and diluted into citric acid buffer (pH 4.5) immediately before injections. Drinking water and food were removed for 6 hours from 8-week old C57BL/6 female mice (Charles River) before mice were given a single intraperitoneal dose of 150 mg/kg STZ (Day −4). Blood for glucose determination was obtained from the tail vein four days post STZ. Blood glucose was measured by using an Elite glucometer (Bayer). Mice were considered diabetic if their blood glucose was >300 mg/dL. Mice showing >300 mg/dL blood glucose were randomized and divided into 5 groups of 10 mice (day 0). […]
After 96 hours of expansion, cells were harvested and processed for fluorescence activated cell sorting (FACS). […] Stained cells were excited with laser 2 (488 nm) and fluorescence emission was detected using the following optical filters, FL-3 (PerCP-Cy5.5) 695/BP40, FL-2 (phycoerythrin) 585/BP42 and FL-1 (FITC) 530/BP30. […]

[3] = tested on: peripheral blood cells; assay: FACS phenotype of peripheral blood cells after single subcutaneous injection; format: in vivo, C57Bl6 mice; conditions: for Phenotype Lin−/Sca-1+ / Phenotype Lin−/Sca-1−: mononuclear cells; for Phenotype CD19+ / Phenotype Gr-1 High / Phenotype Gr-1 Low: individual mice
Description: C57Bl6 male mice, from 8 weeks to 4 month of age, from Harlan were used. […] 20 μl of blood was removed from each tube for WBC counts;
200 μl of blood was used for FACS analysis of cells phenotypes: briefly 50 μl of blood was transferred to a 15 ml polypropylene tube containing 1 ml ACK lysis buffer and the tubes left at room temperature for 6 minutes. 50 μl of a 1:50 dilution of Fc block (Pharmingen 01241A) along with 2 ul of anti-CD19FITC (Pharmingen 09654A) and 2 μl of anti-Gr-1PE (Pharmingen 01215A) was added and the tubes left at room temperature for 30 minutes protected from light. The cells were washed with 3 ml FACS buffer, resuspended in 300 μl FACS buffer and kept on ice, protected from light until acquired on the FACSCalibur.
For flow cytometry analysis the blood was stained with antibodies and a phenotype determined by FACS as described before. In addition to the whole blood FACS phenotyping, Ficolled blood was also stained to monitor the Lin−/Sca+ phenotype. The cells were washed with 3 ml FACS buffer, resuspended in 300 μl FACS buffer and kept on ice, protected from light until acquired on the FACSCalibur

In the case of “FPHFDLSHGSAQV [Compound X, tridecapeptide that acts on stem cells]”, the “increase of CFU-GEMM number in peripheral blood vs Vehicle or 250 ug/kg” value ([1]; intravenous 5 mg/kg, one-hour post injection) is reported as over 3 times, the “mobilization of progenitor cells into the peripheral blood” value ([1]; subcutaneous, doses as high as 5 mg/kg) is reported as “failed to mobilize” and the “Survival of STZ treated mice” value ([2]; s.c. 250 μg/kg for 5 consecutive days for 3 weeks, STZ 150 mg/kg) is reported as 100%. For the same sequence, the “mice with substantial weight loss” value ([2]; s.c. 250 μg/kg stem cell mobilizing doses) was “No mice”, the “Phenotype Lin−/Sca-1+” value ([3]; 50 μg/kg, 1-hour) was 0.4% and the “Phenotype Lin−/Sca-1−” value ([3]; 50 μg/kg, 1-hour) was 0.8%. The “Phenotype Lin−/Sca-1+” value ([3]; 50 μg/kg, 30-min) was 0.5%, the “Phenotype Lin−/Sca-1−” value ([3]; 50 μg/kg, 30-min) was 1.0% and the “Phenotype Lin−/Sca-1+” value ([3]; 250 μg/kg, 1-hour) was 0.8%. For the same sequence, the “Phenotype Lin−/Sca-1−” value ([3]; 250 μg/kg, 1-hour) was 1.1%, the “Phenotype Lin−/Sca-1+” value ([3]; 250 μg/kg, 30-min) was 0.6% and the “Phenotype Lin−/Sca-1−” value ([3]; 250 μg/kg, 30-min) was 1.1%. For the same sequence, the “Phenotype CD19+” value ([3]; s.c. 50 μg/kg, 1 hr) was 38.3% and 41.0% and 29.6%, the “Phenotype Gr-1 High” value ([3]; s.c. 50 μg/kg, 1 hr) was 26.0% and 27.7% and 29.4% and the “Phenotype Gr-1 Low” value ([3]; s.c. 50 μg/kg, 1 hr) was 3.5% (2×) and 7.0%. For the same sequence, the “Phenotype CD19+” value ([3]; s.c. 50 μg/kg, 4 hr) was 33.9% and 40.9% and 29.1%, the “Phenotype Gr-1 High” value ([3]; s.c. 50 μg/kg, 4 hr) was 25.0% and 16.7% and 29.1% and the “Phenotype Gr-1 Low” value ([3]; s.c. 50 μg/kg, 4 hr) was 6.2% and 7.6% and 5.3%. For the same sequence, the “Phenotype CD19+” value ([3]; s.c. 250 μg/kg, 1 hr) was 14.8% and 4.8% and 14.5%, the “Phenotype Gr-1 High” value ([3]; s.c. 250 μg/kg, 1 hr) was 55.2% and 18.7% and 6.8% and the “Phenotype Gr-1 Low” value ([3]; s.c. 250 μg/kg, 1 hr) was 3.5% and 2.1% and 2.4%. For the same sequence, the “Phenotype CD19+” value ([3]; s.c. 250 μg/kg, 4 hr) was 46.7% and 48.5% and 46.6%, the “Phenotype Gr-1 High” value ([3]; s.c. 250 μg/kg, 4 hr) was 16.1% and 12.9% and 11.7% and the “Phenotype Gr-1 Low” value ([3]; s.c. 250 μg/kg, 4 hr) was 5.1% and 5.5% and 6.6%. For the same sequence, the “mobilization of lineage negative progenitors” value ([3]; s.c. 50 or 250 μg/kg, 30 min and 1 hr) was “did not have such an effect”.
